Source: US20260193116A1, “MEMBRANE TREATMENT METHOD, BIOFOULING INHIBITION METHOD, AND ENDOTOXIN PRODUCTION INHIBITION METHOD IN WATER SYSTEM” (KURITA WATER INDUSTRIES LTD., priority 2022, published 2026)

Assays:
[1] = tested on: biofouling of RO membrane (MFS cell); experiment: MFS water flow test (Example 1): differential pressure increase of the RO membrane cell
[2] = tested on: bacterial flora in a biofilm attached to a RO membrane surface; experiment: Bacterial flora analysis (16S rRNA amplicon) of biofilm attached to RO membrane surface after water flow test (Example 2)
[3] = tested on: biofouling of RO membrane (MFS cell); experiment: MFS water flow test (Example 3): differential pressure increase of the RO membrane cell; conditions: citric acid + ammonium chloride + sodium phosphate, 35° C., 0.36 mg/L as Cl2 (DPD method), Continuous addition

Q: What does the source list for `O=S(=O)(O)NCl.[Na]` [Chlorosulfamic acid, sodium monochlorosulfamic acid]?
A: Differential pressure suppression effect vs Control [1]: 102%; (Negative bacteria/[negative bacteria + positive bacterial]) (%) [2]: 18.2%; Acidovorax existence ratio in bacterial flora [2]: 0.1%; Azotobacter existence ratio in bacterial flora [2]: 0.4%; Cupriavidus existence ratio in bacterial flora [2]: 4.6%; Dominant bacteria in the biofilm (in words) [2]: Mycolicibacterium genus bacteria and Mycobacterium genus bacteria, which are gram-positive bacteria, were dominant; Gram-negative bacteria (%) [2]: 16.7%; Gram-negative bacteria Others existence ratio in bacterial flora [2]: 6.5%; Gram-positive bacteria existence ratio in bacterial flora [2]: 75.1%; Pseudomonas existence ratio in bacterial flora [2]: 4.8%; Ralstonia existence ratio in bacterial flora [2]: 0.3%; Unknown bacteria existence ratio in bacterial flora [2]: 8.2%; Differential pressure suppression effect vs Control [3]: 95%
